Data: patent US7777035B2, “Azaindazole compounds and methods of use” (Chemocentryx, Inc., priority 2005, dated 2010)

target: T1, CCR1 (Homo sapiens, UniProt P32246); test: CCR1 chemotaxis assay or binding assay (activity given for either); details: either the chemotaxis assay or binding assay; CCR1 expressing cells (THP-1 or human monocytes); read-out: Activity (IC50 class)
T1 construct: host or cells: THP-1 cells or monocytes isolated from human buffy coats
T1 sequence (P32246 1-355): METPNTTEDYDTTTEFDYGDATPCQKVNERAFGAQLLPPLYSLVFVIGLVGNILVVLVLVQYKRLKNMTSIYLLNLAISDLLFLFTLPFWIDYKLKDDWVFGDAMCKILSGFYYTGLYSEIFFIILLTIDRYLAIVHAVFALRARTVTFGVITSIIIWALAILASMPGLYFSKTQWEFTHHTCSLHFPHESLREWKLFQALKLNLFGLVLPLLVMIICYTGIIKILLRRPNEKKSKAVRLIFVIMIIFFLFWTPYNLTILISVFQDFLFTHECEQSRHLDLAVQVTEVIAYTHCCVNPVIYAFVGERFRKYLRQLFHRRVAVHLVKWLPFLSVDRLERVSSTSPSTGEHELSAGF
Method: Cells were grown under 5% CO2/95% air, 100% humidity at 37° C. and subcultured twice weekly at 1:5 (cells were cultured at a density range of 2×10^5 to 2×10^6 cells/mL) and harvested at 1×10^6 cells/mL. THP-1 cells express CCR1 and can be used in CCR1 binding and functional assays.
Monocytes were isolated from human buffy coats using the Miltenyi bead isolation system (Miltenyi, Auburn, Calif.). Briefly, following a Ficoll gradient separation to isolate peripheral blood mononuclear cells, cells were washed with PBS and the red blood cells lysed using standard procedures. Remaining cells were labeled with anti-CD14 antibodies coupled to magnetic beads (Miltenyi Biotech, Auburn, Calif.). Labeled cells were passed through AutoMACS (Miltenyi, Auburn, Calif.) and positive fraction collected. Monocytes express CCR1 and can be used in CCR1 binding and functional assays.
CCR1 expressing cells were centrifuged and resuspended in assay buffer (20 Mm HEPES pH 7.1, 140 Mm NaCl, 1 Mm CaCl2, 5 Mm MgCl2, and with 0.2% bovine serum albumin) to a concentration of 5×10^6 cells/mL for THP-1 cells and 5×10^5 for monocytes. Binding assays were set up as follows. […] Reactions were aspirated onto GF/B glass filters pre-soaked in 0.3% polyethyleneimine (PEI) solution, on a vacuum cell harvester (Packard Instruments; Meriden, Conn.). Scintillation fluid (40 μl; Microscint 20, Packard Instruments) was added to each well, the plates were sealed and radioactivity measured in a Topcount scintillation counter (Packard Instruments). Control wells containing either diluent only (for total counts) or excess MIP-1α or MIP-1β (1 μg/mL, for non-specific binding) were used to calculate the percent of total inhibition for compound. The computer program Prism from GraphPad, Inc. (San Diego, Calif.) was used to calculate IC50 values.
Chemotaxis assays were performed using 5 ┌ m pore polycarbonate, polyvinylpyrrolidone-coated filters in 96-well chemotaxis chambers (Neuroprobe; Gaithersburg, Md.) using chemotaxis buffer (Hank's balanced salt solution (HBSS) and 1% FBS). CCR1 chemokine ligands (i.e., MIP-1α, CCL15/Leukotactin; R&D Systems; Minneapolis, Minn.) are use to evaluate compound mediated inhibition of CCR1 Mediated migration. Other chemokines (i.e., SDF-1α; R&D Systems; Minneapolis, Minn.) are used as specificity controls. […] The chambers were incubated 1-2 hours at 37° C., and the number of cells in the lower chamber quantified either by direct cell counts in five high powered fields per well or by the CyQuant assay (Molecular Probes), a fluorescent dye method that measures nucleic acid content and microscopic observation.
THP-1 cells and monocytes lack other chemokine receptors that bind the same set of chemokine ligands as CCR1 (i.e., MIP-1α, MPIF-1, Leukotactin, etc.). Equal numbers of cells were added to each well in the plate. The cells were then incubated with radiolabeled MIP-1α. Unbound ligand was removed by washing the cells, and bound ligand was determined by quantifying radioactive counts. […] Percent inhibition was determined by the equation: […]
In the assay, the amount of compound was varied; while cell number and ligand concentration were held constant.
One of the primary functions of chemokines is their ability to mediate the migration of chemokine receptor-expressing cells, such as white blood cells. […] THP-1 Myelomonocytic leukemia cells, which resemble monocytes, as wells as freshly isolated monocytes, were used as targets for chemoattraction by CCR1 chemokine ligands (i.e., MIP-1α, CCL15/leukotactin). […] In this assay, the amount of compound was varied; while cell number and chemokine agonist concentrations were held constant. After the chemotaxis chambers were incubated 1-2 hours at 37° C., the responding cells in the lower chamber were quantified by labeling with the CyQuant assay (Molecular Probes), a fluorescent dye method that measures nucleic acid content, and by measuring with a Spectrafluor Plus (Tecan).

SMILES | IC50
COc1cc(N2CCN(C(=O)Cn3nc(-c4nccs4)c4cccnc43)CC2)ccc1Cl [Compound 1.011] | 2.5 to 12.5 µM
COc1cc(N2CCN(C(=O)Cn3cc4c(Cl)nccc4n3)CC2)ccc1Cl [Compound 1.036] | < 1 µM
COc1cc(N2CCN(C(=O)Cn3ncc4ccncc43)CC2)ccc1Cl [Compound 1.019] | < 1 µM
COc1cc(N2CCN(C(=O)Cn3ncc4cccnc43)[C@@H](C)C2)c(F)cc1Cl [Compound 1.001] | < 1 µM
COc1cc(N2CCN(C(=O)Cn3cc4ccncc4n3)CC2)ccc1Cl [Compound 1.018] | < 1 µM
COc1cc(N2CCN(C(=O)Cn3nc(CN=[N+]=[N-])c4cccnc43)CC2)ccc1Cl [Compound 1.040] | < 1 µM
COc1cc(N2CCN(C(=O)Cn3nc4ncccc4c3Cl)CC2)ccc1Cl [Compound 1.029] | < 1 µM
COc1cc(N2CCN(C(=O)Cn3ncc4cc(Cl)cnc43)CC2)ccc1Cl [Compound 1.042] | < 1 µM
COc1cc(N2CCN(C(=O)Cn3nc(-c4ncco4)c4cccnc43)CC2)ccc1Cl [Compound 1.015] | < 1 µM
COc1cc(N2CCN(C(=O)Cn3ncc4cccnc43)CC2)ccc1Cl [Compound 1.007] | < 1 µM
COc1cc(N2CCN(C(=O)Cn3cc4ncccc4n3)CC2)ccc1Cl [Compound 1.027] | < 1 µM
COc1cc(N2CCN(C(=O)Cn3nc(C)c4cccnc43)CC2)ccc1Cl [Compound 1.014] | 1 to 2.5 µM
COc1cc(N2CCN(C(=O)Cn3ncc4c(I)ccnc43)CC2)ccc1Cl [Compound 1.038] | < 1 µM
COc1cc(N2CCN(C(=O)Cn3cc4cccnc4n3)[C@@H](C)C2)c(F)cc1Cl [Compound 1.002] | < 1 µM
COc1cc(N2CCN(C(=O)Cn3nc(C)c4cccnc43)CC2)ccc1Cl [Compound 1.023] | < 1 µM
COc1cc(N2CCN(C(=O)Cn3ncc4cnccc43)[C@@H](C)C2)c(F)cc1Cl [Compound 1.008] | < 1 µM
COc1cc(N2CCN(C(=O)Cn3nc(CS(=O)(=O)O)c4cccnc43)CC2)ccc1Cl [Compound 1.041] | 1 to 2.5 µM
COc1cc(N2CCN(C(=O)Cn3ncc4cc[n+]([O-])cc43)CC2)ccc1Cl [Compound 1.035] | < 1 µM
COc1cc(N2CCN(C(=O)Cn3nc(-c4ccccn4)c4cccnc43)CC2)ccc1Cl [Compound 1.010] | < 1 µM
COc1cc(N2CCN(C(=O)Cn3ncc4cccnc43)CC2)c(F)cc1Cl [Compound 1.012] | < 1 µM
COc1cc(N2CCN(C(=O)Cn3ncc4c(S(C)(=O)=O)ccnc43)CC2)ccc1Cl [Compound 1.039] | < 1 µM
COc1cc(N2CCN(C(=O)Cn3nc(C#N)c4cccnc43)CC2)ccc1Cl [Compound 1.026] | < 1 µM
COc1cc(N2CCN(C(=O)Cn3ncc4ccc(C)nc43)CC2)ccc1Cl [Compound 1.031] | < 1 µM
COc1cc(N2CCN(C(=O)Cn3nc(Cl)c4cccnc43)CC2)ccc1Cl [Compound 1.004] | < 1 µM
COc1cc(N2CCN(C(=O)Cn3cc4ccncc4n3)[C@@H](C)C2)c(F)cc1Cl [Compound 1.009] | < 1 µM
COc1cc(N2CCN(C(=O)Cn3ncc4ncccc43)CC2)ccc1Cl [Compound 1.028] | < 1 µM
COc1cc(N2CCN(C(=O)Cn3nc(-c4nccs4)c4cccnc43)[C@@H](C)C2)c(F)cc1Cl [Compound 1.021] | < 1 µM

The remaining lines, values ahead:

IC50 | SMILES
< 1 µM | COc1cc(N2CCN(C(=O)Cn3nc(I)c4cccnc43)[C@@H](C)C2)c(F)cc1Cl [Compound 1.064]
< 1 µM | COc1cc(N2CCN(C(=O)Cn3nc(S(C)(=O)=O)c4cccnc43)CC2)ccc1Cl [Compound 1.061]
< 1 µM | CCOc1cc(N2CCN(C(=O)Cn3nc(-c4ncc[nH]4)c4cccnc43)CC2)ccc1Cl [Compound 1.067]
< 1 µM | COc1cc(N2CCN(C(=O)Cn3nc(-c4ncc[nH]4)c4cccnc43)C[C@H]2C)ccc1Cl [Compound 1.071]
< 1 µM | COc1cc(N2CCN(C(=O)Cn3nc(C)c4cc(N)cnc43)CC2)ccc1Cl [Compound 1.053]
< 1 µM | C[C@H]1CN(c2ccc(Cl)c(OCCF)c2)CCN1C(=O)Cn1nc(-c2ncc[nH]2)c2cccnc21 [Compound 1.076]
2.5 to 12.5 µM | O=C(Cn1nc(-c2ncc[nH]2)c2cccnc21)N1CCN(c2ccc(Cl)c(C(F)(F)F)c2)CC1 [Compound 1.078]
< 1 µM | COc1cc(N2CCN(C(=O)Cn3ncc4ccnc(N=[N+]=[N-])c43)CC2)ccc1Cl [Compound 1.050]
< 1 µM | COc1cc(N2CCN(C(=O)Cn3nc(-c4ncc[nH]4)c4cccnc43)[C@@H](C)C2)ccc1Cl [Compound 1.069]
< 1 µM | CCOc1cc(N2CCN(C(=O)Cn3nc(-c4ncc[nH]4)c4cccnc43)CC2)c(F)cc1Cl [Compound 1.065]
< 1 µM | COc1cc(N2CCN(C(=O)Cn3nc(-c4ncc[nH]4)c4cccnc43)[C@@H](C)C2)c(F)cc1Cl [Compound 1.070]
< 1 µM | O=C(Cn1nc(-c2ncc[nH]2)c2cccnc21)N1CCN(c2cc(OCCF)c(Cl)cc2F)CC1 [Compound 1.066]
< 1 µM | COc1cc(N2CCN(C(=O)Cn3ncc4ccc(NC(C)=O)nc43)CC2)ccc1Cl [Compound 1.060]
< 1 µM | COc1cc(N2CCN(C(=O)Cn3nc(-c4ncc[nH]4)c4cccnc43)C[C@@H]2C)ccc1Cl [Compound 1.072]
< 1 µM | COc1cc(N2CCN(C(=O)Cn3nc(-c4ncc[nH]4)c4cccnc43)CC2)ccc1Cl [Compound 1.080]
< 1 µM | O=C(Cn1nc(-c2ncc[nH]2)c2cccnc21)N1CCN(c2ccc(Cl)c(OC(F)(F)F)c2)CC1 [Compound 1.079]
< 1 µM | COc1cc(N2CCN(C(=O)Cn3nc(-c4noc(C)n4)c4cccnc43)CC2)ccc1Cl [Compound 1.059]
< 1 µM | COc1cc(N2CCN(C(=O)Cn3nc(C)c4cc([N+](=O)[O-])cnc43)CC2)ccc1Cl [Compound 1.054]
1 to 2.5 µM | COc1cc(N2CCN(C(=O)Cn3nc(CN)c4cccnc43)CC2)ccc1Cl [Compound 1.062]
< 1 µM | COc1cc(N2CCN(C(=O)Cn3ncc4ccnc(N)c43)CC2)ccc1Cl [Compound 1.051]
< 1 µM | COc1cc(N2CCN(C(=O)Cn3nc(-c4ncc[nH]4)c4cccnc43)CC2)c(F)cc1Cl [Compound 1.068]
< 1 µM | COc1cc(N2CCN(C(=O)Cn3nc(N)c4ccc(C)nc43)CC2)ccc1Cl [Compound 1.055]
< 1 µM | O=C(Cn1nc(-c2ncc[nH]2)c2cccnc21)N1CCN(c2ccc(Cl)c(OCCF)c2)CC1 [Compound 1.075]
< 1 µM | COc1cc(N2CCN(C(=O)Cn3cc4ccc(Cl)nc4n3)CC2)ccc1Cl [Compound 1.046]
< 1 µM | COc1cc(N2CCN(C(=O)Cn3nc(-c4ncon4)c4cccnc43)CC2)ccc1Cl [Compound 1.058]
< 1 µM | COc1cc(N2CCN(C(=O)Cn3nc(-c4ncc[nH]4)c4cccnc43)[C@H](C)C2)ccc1Cl [Compound 1.073]
< 1 µM | CCOc1cc(N2CCN(C(=O)Cn3nc(-c4ncc[nH]4)c4cccnc43)[C@@H](C)C2)ccc1Cl [Compound 1.074]
< 1 µM | COc1cc(N2CCN(C(=O)Cn3ncc4ccc(N)nc43)CC2)ccc1Cl [Compound 1.049]
